test system: recombinant guanylate cyclase reporter cell line; assay: Effect on a recombinant guanylate cyclase reporter cell line; format: cell-based; details: in some cases mean values for individual determinations
Method: B-2. Effect on a Recombinant Guanvlate Cyclase Reporter Cell Line
The cellular activity of the compounds according to the invention is determined using a recombinant guanylate cyclase reporter cell line, as described in F. Wunder et al., Anal. Biochem. 339, 104-112 (2005).
Representative MEC values (MEC=minimum effective concentration) for the compounds of the invention are shown in the table below (in some cases as mean values for individual determinations): […]

Compound | MEC (minimum effective concentration) [µM]
Cc1nc2c(OCc3c(F)cccc3F)cc(Cl)cn2c1C(=O)NCC(C)(N)CCF (racemic) [Example 7, rac-N-(2-Amino-4-fluoro-2-methylbutyl)-6-chloro-8-[(2,6-difluorobenzyl)oxy]-2-methylimidazo[1,2-a]pyridine-3-carboxamide (racemate)] | 0.1
Cc1nc2c(OCc3c(F)cccc3F)cc(Cl)cn2c1C(=O)NCC(C)(N)CCCF (single isomer, unassigned; enantiomer a) [Example 3, ent-N-(2-Amino-5-fluoro-2-methylpentyl)-6-chloro-8-[(2,6-difluorobenzyl)oxy]-2-methylimidazo[1,2-a]pyridine-3-carboxamide (enantiomer A)] | 0.1
Cc1nc2c(OCc3c(F)cccc3F)cc(Cl)cn2c1C(=O)NCC(C)(N)CC(F)F (single isomer, unassigned; enantiomer a) [Example 5, ent-N-(2-Amino-4,4-difluoro-2-methylbutyl)-6-chloro-8-[(2,6-difluorobenzyl)oxy]-2-methylimidazo[1,2-a]pyridine-3-carboxamide (enantiomer A)] | 0.3
Cc1nc2c(OCc3c(F)cccc3F)cc(Cl)cn2c1C(=O)NCC(C)(N)CCF (single isomer, unassigned; enantiomer a) [Example 8, ent-N-(2-Amino-4-fluoro-2-methylbutyl)-6-chloro-8-[(2,6-difluorobenzyl)oxy]-2-methylimidazo[1,2-a]pyridine-3-carboxamide (enantiomer A)] | 0.1
Cc1nc2c(OCc3c(F)cccc3F)cc(Cl)cn2c1C(=O)NCC(C)(N)CF (single isomer, unassigned; enantiomer b) [Example 1, ent-N-(2-Amino-3-fluoro-2-methylpropyl)-6-chloro-8-[(2,6-difluorobenzyl)oxy]-2-methylimidazo[1,2-a]pyridine-3-carboxamide (enantiomer B)] | 0.3
Cc1nc2c(OCc3c(F)cccc3F)cc(Cl)cn2c1C(=O)NCC(C)(N)CCC(F)(F)F (single isomer, unassigned; enantiomer b) [Example 2, ent-N-(2-Amino-5,5,5-trifluoro-2-methylpentyl)-6-chloro-8-[(2,6-difluorobenzyl)oxy]-2-methylimidazo[1,2-a]pyridine-3-carboxamide (enantiomer B)] | 0.3
Cc1nc2c(OCc3c(F)cccc3F)cc(Cl)cn2c1C(=O)NCC(C)(N)CCCF (single isomer, unassigned; enantiomer b) [Example 4, ent-N-(2-Amino-5-fluoro-2-methylpentyl)-6-chloro-8-[(2,6-difluorobenzyl)oxy]-2-methylimidazo[1,2-a]pyridine-3-carboxamide (enantiomer B)] | 0.1
Cc1nc2c(OCc3c(F)cccc3F)cc(Cl)cn2c1C(=O)NCC(C)(N)CC(F)F (single isomer, unassigned; enantiomer b) [Example 6, ent-N-(2-Amino-4,4-difluoro-2-methylbutyl)-6-chloro-8-[(2,6-difluorobenzyl)oxy]-2-methylimidazo[1,2-a]pyridine-3-carboxamide (enantiomer B)] | 0.3
Cc1nc2c(OCc3c(F)cccc3F)cc(Cl)cn2c1C(=O)NCC(C)(N)CCF (single isomer, unassigned; enantiomer b) [Example 9, ent-N-(2-Amino-4-fluoro-2-methylbutyl)-6-chloro-8-[(2,6-difluorobenzyl)oxy]-2-methylimidazo[1,2-a]pyridine-3-carboxamide (enantiomer B)] | 0.1
